# In US10597388B2, “Pyridazinone herbicides” (FMC CORPORATION, priority 2014, dated 2020):
# Tests used:
# Type in all cases: in vivo
# [1] = system: barnyardgrass (Echinochloa crus-galli); assay: Test C greenhouse herbicide test, pre- and postemergence
# Summary of the method: (§1)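 Preemergence: seeds sown in a loam soil–sand blend and sprayed with test chemicals in a non-phytotoxic solvent mixture containing surfactant. Postemergence: plants grown in peat-based medium and treated at 2 to 18 cm (1- to 4-leaf stage). After 13 to 15 d in a greenhouse, injury was visually rated 0–100 against controls.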
# [2] = system: blackgrass (Alopecurus myosuroides); assay: as above
# Summary of the method: as §1
# corn (Zea mays) = assay: as above
# Summary of the method: as §1
# [3] = system: crabgrass, large (large crabgrass, Digitaria sanguinalis); assay: as above
# Summary of the method: as §1
# [4] = system: foxtail, giant (giant foxtail, Setaria faberii); assay: as above
# Summary of the method: as §1
# [5] = system: johnsongrass (Sorghum halepense); assay: as above
# Summary of the method: as §1
# [6] = system: lambsquarters (Chenopodium album); assay: as above
# Summary of the method: as §1
# [7] = system: morningglory (Ipomoea coccinea); assay: as above
# Summary of the method: as §1
# [8] = system: pigweed (Amaranthus retroflexus); assay: as above
# Summary of the method: as §1
# [9] = system: ragweed (common ragweed, Ambrosia elatior); assay: as above
# Summary of the method: as §1
# [10] = system: ryegrass, Italian (Italian ryegrass, Lolium multiflorum); assay: as above
# Summary of the method: as §1
# soybean (Glycine max) = assay: as above
# Summary of the method: as §1
# [11] = system: waterhemp (common waterhemp, Amaranthus rudis); assay: as above
# Summary of the method: as §1
# [12] = system: wheat (winter wheat, Triticum aestivum); assay: as above
# Summary of the method: as §1
# kochia (Kochia scoparia) = assay: Test C greenhouse herbicide test, postemergence; settings: for Plant response rating, Kochia: Postemergence
# Summary of the method: (§2)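 Plants grown in potting mix of peat moss, vermiculite, wetting agent and starter nutrients were sprayed postemergence at 2 to 18 cm height (1- to 4-leaf stage). After 13 to 15 d in the greenhouse, injury was visually rated against untreated controls on a 0–100 scale (0 no effect, 100 complete control).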
# [13] = system: oat, wild (wild oat, Avena fatua); assay: Test C greenhouse herbicide test, postemergence; settings: for Plant response rating, Oat, Wild: Postemergence
# Summary of the method: as §2
# [14] = Postemergence, 31 g ai/ha, 0 to 100 scale (0 no effect, 100 complete control)
# [15] = Postemergence, 125 g ai/ha, scale 0 to 100, 0 is no effect, 100 is complete control
# [16] = Postemergence, 250 g ai/ha, scale 0 to 100, 0 no effect, 100 complete control, 13 to 15 d
# [17] = Preemergence, 31 g ai/ha, scale 0 to 100, 0 is no effect, 100 is complete control
# [18] = Preemergence, 62 g ai/ha, scale 0 to 100, 0 is no effect, 100 is complete control
# [19] = Preemergence, 125 g ai/ha, scale 0 to 100, 0 is no effect, 100 is complete control
# [20] = Preemergence, 250 g ai/ha, scale 0 to 100 (0 no effect, 100 complete control)
# [21] = postemergence, 62 g ai/ha, scale 0 to 100, 0 no effect, 100 complete control
# [22] = 125 g ai/ha, scale 0 to 100, 0 is no effect, 100 is complete control
# [23] = 250 g ai/ha, scale 0 to 100, 0 no effect, 100 complete control, 13 to 15 d
smiles,measurement,setting,value
COC(=O)Oc1c(C)nn(C)c(=O)c1-c1c(C)sc2c(C)cc(C)cc12 [Compound 81],Barnyardgrass plant response rating,[1]; [14],25
same,"Plant response rating, Barnyardgrass",[1]; [15],35
same,"Plant response rating, Barnyardgrass",[1]; [16],60
same,"Plant response rating, Barnyardgrass",[1]; [17],30
same,"Plant response rating, Barnyardgrass",[1]; [18],70
same,"Plant response rating, Barnyardgrass",[1]; [19],80
same,Barnyardgrass plant response rating,[1]; [20],98
same,Barnyardgrass plant response rating,[1]; [21],35
same,Blackgrass plant response rating,[2]; [14],60
same,"Plant response rating, Blackgrass",[2]; [15],90
same,"Plant response rating, Blackgrass",[2]; [16],90
same,"Plant response rating, Blackgrass",[2]; [17],60
same,"Plant response rating, Blackgrass",[2]; [18],80
same,"Plant response rating, Blackgrass",[2]; [19],90
same,Blackgrass plant response rating,[2]; [20],90
same,Blackgrass plant response rating,[2]; [21],85
same,Corn plant response rating,corn (Zea mays); [14],0
same,"Plant response rating, Corn",corn (Zea mays); [15],10
same,"Plant response rating, Corn",corn (Zea mays); [16],0
same,"Plant response rating, Corn",corn (Zea mays); [17],0
same,"Plant response rating, Corn",corn (Zea mays); [18],10
same,"Plant response rating, Corn",corn (Zea mays); [19],20
same,Corn plant response rating,corn (Zea mays); [20],30
same,Corn plant response rating,corn (Zea mays); [21],5
same,"Plant response rating, Crabgrass, Large",[3]; [15],40
same,"Plant response rating, Crabgrass, Large",[3]; [16],55
same,"Plant response rating, Crabgrass, Large",[3]; [17],90
same,"Plant response rating, Crabgrass, Large",[3]; [18],75
same,"Plant response rating, Crabgrass, Large",[3]; [19],90
same,"Crabgrass, Large plant response rating",[3]; [20],98
same,"Crabgrass, Large plant response rating",[3]; [21],35
same,"Plant response rating, Foxtail, Giant",[4]; [15],90
same,"Plant response rating, Foxtail, Giant",[4]; [16],90
same,"Plant response rating, Foxtail, Giant",[4]; [17],80
same,"Plant response rating, Foxtail, Giant",[4]; [18],98
same,"Plant response rating, Foxtail, Giant",[4]; [19],98
same,"Foxtail, Giant plant response rating",[4]; [20],100
same,"Foxtail, Giant plant response rating",[4]; [21],85
same,"Plant response rating, Johnsongrass",[5]; [15],5
same,"Plant response rating, Johnsongrass",[5]; [16],70
same,"Plant response rating, Johnsongrass",[5]; [17],25
same,"Plant response rating, Johnsongrass",[5]; [18],5
same,"Plant response rating, Johnsongrass",[5]; [19],45
same,Johnsongrass plant response rating,[5]; [20],98
same,Johnsongrass plant response rating,[5]; [21],5
same,"Plant response rating, Lambsquarters",[6]; [15],98
same,"Plant response rating, Lambsquarters",[6]; [16],100
same,"Plant response rating, Lambsquarters",[6]; [17],75
same,"Plant response rating, Lambsquarters",[6]; [18],90
same,"Plant response rating, Lambsquarters",[6]; [19],85
same,Lambsquarters plant response rating,[6]; [20],95
same,Lambsquarters plant response rating,[6]; [21],95
same,"Plant response rating, Morningglory",[7]; [15],100
same,"Plant response rating, Morningglory",[7]; [16],98
same,"Plant response rating, Morningglory",[7]; [17],80
same,"Plant response rating, Morningglory",[7]; [18],85
same,"Plant response rating, Morningglory",[7]; [19],90
same,Morningglory plant response rating,[7]; [20],95
same,Morningglory plant response rating,[7]; [21],100
same,"Plant response rating, Pigweed",[8]; [15],85
same,"Plant response rating, Pigweed",[8]; [16],90
same,"Plant response rating, Pigweed",[8]; [17],98
same,"Plant response rating, Pigweed",[8]; [18],95
same,"Plant response rating, Pigweed",[8]; [19],95
same,Pigweed plant response rating,[8]; [20],100
same,Pigweed plant response rating,[8]; [21],85
same,"Plant response rating, Ragweed",[9]; [15],70
same,"Plant response rating, Ragweed",[9]; [16],85
same,"Plant response rating, Ragweed",[9]; [17],85
same,"Plant response rating, Ragweed",[9]; [18],95
same,"Plant response rating, Ragweed",[9]; [19],95
same,Ragweed plant response rating,[9]; [20],98
same,Ragweed plant response rating,[9]; [21],75
same,"Plant response rating, Ryegrass, Italian",[10]; [15],90
same,"Plant response rating, Ryegrass, Italian",[10]; [16],90
same,"Plant response rating, Ryegrass, Italian",[10]; [17],80
same,"Plant response rating, Ryegrass, Italian",[10]; [18],90
same,"Plant response rating, Ryegrass, Italian",[10]; [19],90
same,"Ryegrass, Italian plant response rating",[10]; [20],90
same,"Ryegrass, Italian plant response rating",[10]; [21],85
same,"Plant response rating, Soybean",soybean (Glycine max); [15],5
same,"Plant response rating, Soybean",soybean (Glycine max); [16],0
same,"Plant response rating, Soybean",soybean (Glycine max); [17],0
same,"Plant response rating, Soybean",soybean (Glycine max); [18],100
same,"Plant response rating, Soybean",soybean (Glycine max); [19],0
same,Soybean plant response rating,soybean (Glycine max); [20],0
same,Soybean plant response rating,soybean (Glycine max); [21],0
same,"Plant response rating, Waterhemp",[11]; [15],85
same,"Plant response rating, Waterhemp",[11]; [16],80
same,"Plant response rating, Waterhemp",[11]; [17],85
same,"Plant response rating, Waterhemp",[11]; [18],85
same,"Plant response rating, Waterhemp",[11]; [19],90
same,Waterhemp plant response rating,[11]; [20],100
same,Waterhemp plant response rating,[11]; [21],60
same,"Plant response rating, Wheat",[12]; [15],0
same,"Plant response rating, Wheat",[12]; [16],0
same,"Plant response rating, Wheat",[12]; [17],0
same,"Plant response rating, Wheat",[12]; [18],0
same,"Plant response rating, Wheat",[12]; [19],0
same,Wheat plant response rating,[12]; [20],0
same,Wheat plant response rating,[12]; [21],0
same,"Plant response rating, Kochia",kochia (Kochia scoparia); [22],80
same,"Plant response rating, Kochia",kochia (Kochia scoparia); [23],80
same,Kochia plant response rating,kochia (Kochia scoparia); [21],75
same,"Plant response rating, Oat, Wild",[13]; [22],95
same,"Plant response rating, Oat, Wild",[13]; [23],95
same,"Oat, Wild plant response rating",[13]; [21],90
